Square brackets hold non-standard residues; d marks the D form. Peptide text beside a SMILES is read from it. pGlu = O=C1CC[CH](C(=O)O)N1
Experiment: FBMN analysis of short peptides in small intestine contents and serum after oral DHG
Conditions: for Peptide signal (feature intensity) in the small intestine, 30 min / Peptide signal (feature intensity) in the small intestine, 60 min / Peptide signal (feature intensity) in the small intestine, 120 min / Peptide signal (feature intensity) in the small intestine, 240 min: small intestine contents, C57 mice, FBMN feature intensity, peptides smaller than 690 Da; for Peptide signal (feature intensity) in the small intestine, 30 min: 30 min after oral DHG; for Peptide signal (feature intensity) in the small intestine, 60 min: 60 min after oral DHG; for Peptide signal (feature intensity) in the small intestine, 120 min: 120 min after oral DHG; for Peptide signal (feature intensity) in the small intestine, 240 min: 240 min after oral DHG; for time detected in serum (FBMN): time points 0.5-4 h after oral DHG

SMILES	Peptide signal (feature intensity) in the small intestine, 30 min	Peptide signal (feature intensity) in the small intestine, 60 min	Peptide signal (feature intensity) in the small intestine, 120 min	Peptide signal (feature intensity) in the small intestine, 240 min	time detected in serum (FBMN)
C[C@@H](O)[C@H](NC(=O)[C@@H](N)Cc1ccccc1)C(=O)O [Phe-Thr]	4.05E+04	6.53E+03	0.00E+00	0.00E+00	–
O=C1CNC(=O)C(Cc2ccccc2)N1 [cyclo(glycinyl-L-phenylalanine)]	1.21E+06	0.00E+00	9.00E+05	4.18E+05	–
CSCC[C@H](N)C(=O)N[C@@H](Cc1ccccc1)C(=O)O [Met-Phe] (H-Met-Phe-OH)	0.00E+00	0.00E+00	5.87E+05	2.12E+06	–
CC[C@H](C)[C@H](N)C(=O)N[C@@H](CC(N)=O)C(=O)O [Ile-Asn] (H-Ile-Asn-OH)	7.93E+06	7.66E+06	0.00E+00	0.00E+00	–
O=C(O)C(Cc1ccccc1)NC(=O)C1CCCN1 (stereo not drawn) [Pro-Phe] (H-Pro-Phe-OH; configuration not given here)	9.57E+05	9.73E+05	1.22E+06	0.00E+00	–
Nc1nc2c(ncn2[C@@H]2O[C@H](CO)[C@@H](O)[C@H]2O)c(=O)[nH]1 [Guanosine]	8.57E+06	2.01E+06	0.00E+00	0.00E+00	–
CC(C)C[C@H](NC(=O)CN)C(=O)O [Gly-Leu]	0.00E+00	4.18E+07	0.00E+00	4.47E+07	–
CC(C)[C@H](NC(=O)[C@@H](N)CCC(=O)O)C(=O)N[C@@H](Cc1ccccc1)C(=O)O [Glu-Val-Phe] (H-Glu-Val-Phe-OH)	2.73E+05	1.52E+05	4.18E+05	1.30E+06	–
NC(=O)CC[C@H](NC(=O)[C@@H](N)Cc1ccccc1)C(=O)O [Phe-Gln]	0.00E+00	1.71E+05	3.17E+05	2.35E+05	–
CCC(C)C(N)C(=O)N1CCCC1C(=O)O (stereo not drawn) [Ile-Pro] (H-Ile-Pro-OH; configuration not given here)	1.26E+07	6.59E+06	1.48E+07	2.26E+07	–
CC[C@H](C)[C@H](NC(=O)[C@@H](N)CC(N)=O)C(=O)O [Asn-Ile] (H-Asn-Ile-OH)	1.55E+06	1.54E+06	4.19E+06	2.54E+06	–
CC[C@H](C)[C@H](N)C(=O)N[C@H](C(=O)N[C@@H](CCCCN)C(=O)O)[C@@H](C)CC [Ile-Ile-Lys] (H-Ile-Ile-Lys-OH)	3.33E+05	2.00E+05	0.00E+00	0.00E+00	–
CC(C)CC(NC(=O)C(N)Cc1ccccc1)C(=O)O (stereo not drawn) [Phe-Leu] (H-Phe-Leu-OH; configuration not given here)	2.64E+06	2.44E+06	0.00E+00	0.00E+00	≥ 4 h
CSCC[C@H](NC(=O)CN)C(=O)O [Gly-Met]	2.08E+06	7.49E+05	0.00E+00	0.00E+00	–
CSCCC(NC(=O)C1CCC(=O)N1)C(=O)O (stereo not shown) [PyroGlu-Met] ([pGlu]-Met-OH; configuration not given here)	4.70E+06	5.95E+06	0.00E+00	0.00E+00	–
CC(C)[C@H](NC(=O)CN)C(=O)O [Gly-Val] (H-Gly-Val-OH)	0.00E+00	3.54E+06	0.00E+00	2.70E+06	–
O=C1N[C@@H](Cc2ccccc2)C(=O)N2C[C@@H](O)C[C@@H]12 [cyclo(L-Phe-L-4-Hyp)]	1.19E+07	0.00E+00	1.15E+07	6.80E+06	–
N[C@@H](CCC(=O)O)C(=O)N[C@@H](Cc1ccccc1)C(=O)O [Glu-Phe]	0.00E+00	3.96E+06	0.00E+00	1.66E+07	≥ 4 h
CC(C)C[C@H](N)C(=O)N[C@H](C(=O)N[C@@H](CCCCN)C(=O)O)C(C)C [Leu-Val-Lys] (H-Leu-Val-Lys-OH)	0.00E+00	3.40E+05	8.97E+05	2.22E+06	–
CC[C@H](C)[C@H](N)C(=O)NCC(=O)N[C@H](C(=O)O)[C@@H](C)CC [Ile-Gly-Ile] (H-Ile-Gly-Ile-OH)	0.00E+00	2.90E+06	1.40E+06	1.45E+06	–
CC(C)[C@H](N)C(=O)N[C@@H](Cc1ccccc1)C(=O)O [Val-Phe] (H-Val-Phe-OH)	1.38E+06	1.78E+06	0.00E+00	0.00E+00	–
NC(Cc1ccccc1)C(=O)N1CCCC1C(=O)O (stereo not drawn) [Phe-Pro] (H-Phe-Pro-OH; configuration not given here)	1.25E+06	7.11E+05	1.63E+06	3.02E+06	–
CC[C@H](C)[C@H](NC(=O)[C@@H](N)C(C)C)C(=O)N[C@@H](CCCCN)C(=O)O [Val-Ile-Lys] (H-Val-Ile-Lys-OH)	0.00E+00	2.02E+05	0.00E+00	4.35E+06	–
CC[C@H](C)[C@H](N)C(=O)N[C@@H](CCC(=O)O)C(=O)N[C@@H](CCCCN)C(=O)O [Ile-Glu-Lys] (H-Ile-Glu-Lys-OH)	0.00E+00	6.83E+05	0.00E+00	2.93E+06	–
CC(C)[C@H](N)C(=O)N[C@@H](Cc1c[nH]c2ccccc12)C(=O)O [Val-Trp] (H-Val-Trp-OH)	4.66E+05	4.22E+05	6.61E+05	1.64E+06	–
CC(C)[C@H](NC(=O)[C@@H](N)CO)C(=O)O [Ser-Val] (H-Ser-Val-OH)	0.00E+00	5.23E+06	0.00E+00	2.48E+07	–
CC(C)C[C@H](N)C(=O)N[C@@H](C)C(=O)O [Leu-ala] (H-Leu-Ala-OH)	1.85E+06	1.64E+06	0.00E+00	0.00E+00	–
CC(C)[C@H](N)C(=O)NCC(=O)N[C@H](C(=O)O)C(C)C [Val-Gly-Val] (H-Val-Gly-Val-OH)	4.35E+07	3.24E+07	0.00E+00	4.99E+06	–
CC[C@H](C)[C@H](N)C(=O)N[C@@H](CC(C)C)C(=O)O [Ile-Leu] (H-Ile-Leu-OH)	3.18E+06	3.36E+06	0.00E+00	0.00E+00	–

— PMC12616683, “In Vivo Atlas of Neuroprotective Cyclic Dipeptides Derived from Food Gelatin Using Peptidomics and Feature-Based Molecular Networking” (Journal of Agricultural and Food Chemistry, 2025)
